Calls of active or inactive are those of the source. The rule behind the calls is not given here.
Tested on: CCRIS mutagenicity, Ames/micronucleus/aberration tests
Test: CCRIS mutagenicity studies
[1] = Test System: AMES SALMONELLA TYPHIMURIUM, Strain/Indicator: TA100, Metabolic Activation: NONE, Method: STANDARD PLATE
[2] = Test System: E. COLI, Strain/Indicator: WP2UVRA, Metabolic Activation: NONE, Method: PREINCUBATION
[3] = Test System: AMES SALMONELLA TYPHIMURIUM, Strain/Indicator: TA98, Metabolic Activation: NONE, Method: STANDARD PLATE

With O=CC=O the mutagenic call (End Point: IN VITRO CHROMOSOMAL ABERRATIONS, Test System: CHL CELLS, Metabolic Activation: NONE) was “active; positive (structural and ploidy changes)”, the mutagenic call (End Point: IN VITRO CHROMOSOMAL ABERRATIONS, Test System: CHL CELLS, Metabolic Activation: RAT, LIVER, S-9, SODIUM PHENOBARBITAL AND 5,6-BENZOFLAVONE) was “active; positive (structural and ploidy changes)” and the mutagenic call (Test System: AMES SALMONELLA TYPHIMURIUM, Strain/Indicator: TA97, Metabolic Activation: NONE, Method: PREINCUBATION) was “inactive; negative”. The mutagenic call (Test System: AMES SALMONELLA TYPHIMURIUM, Strain/Indicator: TA98, Metabolic Activation: RAT, LIVER, S-9, AROCLOR 1254, Method: PREINCUBATION) was “active; positive”, the mutagenic call (Test System: AMES SALMONELLA TYPHIMURIUM, Strain/Indicator: TA100, Metabolic Activation: NONE) was “active; positive” and the mutagenic call [1] was “active; positive”. For the same compound, the mutagenic call (Test System: AMES SALMONELLA TYPHIMURIUM, Strain/Indicator: TA100, Metabolic Activation: RAT LIVER S-9, PHENOBARBITAL AND BETA-NAPHTHOFLAVONE, Method: PREINCUBATION) was “active; positive”, the mutagenic call (Test System: AMES SALMONELLA TYPHIMURIUM, Strain/Indicator: TA100, Metabolic Activation: RAT, LIVER, S-9, AROCLOR 1254, Method: PREINCUBATION) was “active; positive” and the mutagenic call (Test System: AMES SALMONELLA TYPHIMURIUM, Strain/Indicator: TA100, Metabolic Activation: RAT, LIVER, S-9, PHENOBARBITAL AND 5,6-BENZOFLAVONE, Method: PREINCUBATION) was “active; positive”. For the same compound, the mutagenic call (Test System: AMES SALMONELLA TYPHIMURIUM, Strain/Indicator: TA100, Metabolic Activation: S-9) was “active; positive”, the mutagenic call (Test System: AMES SALMONELLA TYPHIMURIUM, Strain/Indicator: TA102, Metabolic Activation: RAT, LIVER, S-9, AROCLOR 1254, Method: PREINCUBATION) was “active; positive” and the mutagenic call (Test System: AMES SALMONELLA TYPHIMURIUM, Strain/Indicator: TA102, Metabolic Activation: RAT, LIVER, S-9, AROCLOR 1254, Method: STANDARD PLATE) was “active; positive”. For the same compound, the mutagenic call (Test System: AMES SALMONELLA TYPHIMURIUM, Strain/Indicator: TA102, Metabolic Activation: RAT, LIVER, S-9, PHENOBARBITAL AND 5,6-BENZOFLAVONE, Method: PREINCUBATION) was “active; positive”, the mutagenic call (Test System: AMES SALMONELLA TYPHIMURIUM, Strain/Indicator: TA104, Metabolic Activation: NONE, Method: PREINCUBATION) was “active; positive” and the mutagenic call (Test System: AMES SALMONELLA TYPHIMURIUM, Strain/Indicator: TA104, Metabolic Activation: RAT, LIVER, S-9, PHENOBARBITAL AND 5,6-BENZOFLAVONE, Method: PREINCUBATION) was “active; positive”. For the same compound, the mutagenic call (Test System: AMES SALMONELLA TYPHIMURIUM, Strain/Indicator: TA1535, Metabolic Activation: RAT LIVER S-9, PHENOBARBITAL AND BETA-NAPHTHOFLAVONE, Method: PREINCUBATION) was “active; positive”, the mutagenic call (Test System: AMES SALMONELLA TYPHIMURIUM, Strain/Indicator: TA1537, Metabolic Activation: NONE, Method: PREINCUBATION) was “active; positive” and the mutagenic call (Test System: AMES SALMONELLA TYPHIMURIUM, Strain/Indicator: TA1537, Metabolic Activation: RAT LIVER S-9, PHENOBARBITAL AND BETA-NAPHTHOFLAVONE, Method: PREINCUBATION) was “inactive; negative”. The mutagenic call (Test System: AMES SALMONELLA TYPHIMURIUM, Strain/Indicator: TA2638A, Metabolic Activation: RAT LIVER S-9, AROCLOR 1254, Method: STANDARD PLATE) was “active; positive”, the mutagenic call (Test System: AMES SALMONELLA TYPHIMURIUM, Strain/Indicator: TA7001, Metabolic Activation: NONE, Method: PREINCUBATION) was “inactive; negative” and the mutagenic call (Test System: AMES SALMONELLA TYPHIMURIUM, Strain/Indicator: TA7002, Metabolic Activation: NONE, Method: PREINCUBATION) was “inactive; negative”. For the same compound, the mutagenic call (Test System: AMES SALMONELLA TYPHIMURIUM, Strain/Indicator: TA7003, Metabolic Activation: NONE, Method: PREINCUBATION) was “inactive; negative”, the mutagenic call (Test System: AMES SALMONELLA TYPHIMURIUM, Strain/Indicator: TA7004, Metabolic Activation: NONE, Method: PREINCUBATION) was “active; positive” and the mutagenic call (Test System: AMES SALMONELLA TYPHIMURIUM, Strain/Indicator: TA7005, Metabolic Activation: NONE, Method: PREINCUBATION) was “active; positive”. For the same compound, the mutagenic call (Test System: AMES SALMONELLA TYPHIMURIUM, Strain/Indicator: TA7006, Metabolic Activation: NONE, Method: PREINCUBATION) was “active; positive”, the mutagenic call (Test System: E. COLI, Strain/Indicator: W3110, Metabolic Activation: NONE, Method: PREINCUBATION) was “active; positive” and the mutagenic call [2] was “active; positive”. For the same compound, the mutagenic call (Test System: E. COLI, Strain/Indicator: WP2UVRA, Metabolic Activation: RAT LIVER S-9, PHENOBARBITAL AND BETA-NAPHTHOFLAVONE, Method: PREINCUBATION) was “active; positive” and the mutagenic call (Test System: MOUSE LYMPHOMA, Strain/Indicator: L5178Y (TK+/TK-), Metabolic Activation: NONE, Method: SUSPENSION/PLATE) was “active; positive”.

With Nc1cccc(N)n1 the mutagenic call (Test System: AMES SALMONELLA TYPHIMURIUM, Strain/Indicator: TA98, Metabolic Activation: NONE, Method: PREINCUBATION) was “inactive; negative”, the mutagenic call (Test System: AMES SALMONELLA TYPHIMURIUM, Strain/Indicator: TA98, Metabolic Activation: RAT, LIVER, S-9, PCB, Method: PREINCUBATION) was “active; positive” and the mutagenic call (Test System: AMES SALMONELLA TYPHIMURIUM, Strain/Indicator: TA98, Metabolic Activation: RAT, LIVER, S-9, PHENOBARBITAL AND BETA-NAPHTHOFLAVONE, Method: PREINCUBATION) was “inactive; negative”. The mutagenic call (Test System: AMES SALMONELLA TYPHIMURIUM, Strain/Indicator: TA100, Metabolic Activation: NONE, Method: PREINCUBATION) was “inactive; negative”, the mutagenic call (Test System: AMES SALMONELLA TYPHIMURIUM, Strain/Indicator: TA100, Metabolic Activation: RAT, LIVER, S-9, PCB, Method: PREINCUBATION) was “inactive; negative” and the mutagenic call (Test System: AMES SALMONELLA TYPHIMURIUM, Strain/Indicator: TA100, Metabolic Activation: RAT, LIVER, S-9, PHENOBARBITAL AND BETA-NAPHTHOFLAVONE, Method: PREINCUBATION) was “inactive; negative”. The mutagenic call (Test System: AMES SALMONELLA TYPHIMURIUM, Strain/Indicator: TA1535, Metabolic Activation: NONE, Method: PREINCUBATION) was “inactive; negative”, the mutagenic call (Test System: AMES SALMONELLA TYPHIMURIUM, Strain/Indicator: TA1535, Metabolic Activation: RAT, LIVER, S-9, PHENOBARBITAL AND BETA-NAPHTHOFLAVONE, Method: PREINCUBATION) was “inactive; negative” and the mutagenic call (Test System: AMES SALMONELLA TYPHIMURIUM, Strain/Indicator: TA1537, Metabolic Activation: RAT, LIVER, S-9, PHENOBARBITAL AND BETA-NAPHTHOFLAVONE, Method: PREINCUBATION) was “active; positive”. For the same compound, the mutagenic call [2] was “inactive; negative” and the mutagenic call (Test System: E. COLI, Strain/Indicator: WP2UVRA, Metabolic Activation: RAT, LIVER, S-9, PHENOBARBITAL AND BETA-NAPHTHOFLAVONE, Method: PREINCUBATION) was “inactive; negative”.

With CNC(=O)N(C)C(=O)ON the mutagenic call [3] was “active; positive” and the mutagenic call [1] was “active; positive”.

For CCCN(CCCCO)N=O, the mutagenic call (Test System: AMES SALMONELLA TYPHIMURIUM, Strain/Indicator: TA1535, Metabolic Activation: RAT, LIVER, S-9, KC500 OR PHENOBARBITAL, Method: LIQUID SUSPENSION) was “active; positive”.

COc1nsc2cc([N+](=O)[O-])ccc12 was tested, and the mutagenic call [3] was “active; positive”.

For Cc1c2ccncc2c(C)c2c1[nH]c1ccc(N)cc12, the mutagenic call [3] was “active; positive”, the mutagenic call (Test System: AMES SALMONELLA TYPHIMURIUM, Strain/Indicator: TA98, Metabolic Activation: RAT, LIVER, S-9, PHENOBARBITAL, Method: STANDARD PLATE) was “active; positive” and the mutagenic call [1] was “inactive; negative”. For the same compound, the mutagenic call (Test System: AMES SALMONELLA TYPHIMURIUM, Strain/Indicator: TA100, Metabolic Activation: RAT, LIVER, S-9, PHENOBARBITAL, Method: STANDARD PLATE) was “inactive; negative”, the mutagenic call (Test System: AMES SALMONELLA TYPHIMURIUM, Strain/Indicator: TA1537, Metabolic Activation: NONE, Method: STANDARD PLATE) was “active; positive” and the mutagenic call (Test System: AMES SALMONELLA TYPHIMURIUM, Strain/Indicator: TA1537, Metabolic Activation: RAT, LIVER, S-9, PHENOBARBITAL, Method: STANDARD PLATE) was “active; positive”. For the same compound, the mutagenic call (Test System: AMES SALMONELLA TYPHIMURIUM, Strain/Indicator: TA1538, Metabolic Activation: NONE, Method: STANDARD PLATE) was “active; positive” and the mutagenic call (Test System: AMES SALMONELLA TYPHIMURIUM, Strain/Indicator: TA1538, Metabolic Activation: RAT, LIVER, S-9, PHENOBARBITAL, Method: STANDARD PLATE) was “active; positive”.

With C=Cc1ccc([N+](=O)[O-])cc1 the mutagenic call [3] was “active; positive”, the mutagenic call (Test System: AMES SALMONELLA TYPHIMURIUM, Strain/Indicator: TA98, Metabolic Activation: RAT, LIVER, S-9, AROCLOR 1254, Method: STANDARD PLATE) was “active; positive” and the mutagenic call [1] was “active; positive”. The mutagenic call (Test System: AMES SALMONELLA TYPHIMURIUM, Strain/Indicator: TA100, Metabolic Activation: RAT, LIVER, S-9, AROCLOR 1254, Method: STANDARD PLATE) was “active; positive”.

In the case of CC1(C)C2CCC3(CO3)C1C2 (stereo not drawn), the mutagenic call [1] is reported as “inactive; negative” and the mutagenic call (Test System: AMES SALMONELLA TYPHIMURIUM, Strain/Indicator: TA1535, Metabolic Activation: NONE, Method: STANDARD PLATE) is reported as “inactive; negative”.
